Reference: patent publication US9585933B2, “Therapeutic use of peptide inhibitors of NADPH oxidase; aerosolization as a delivery mechanism” (University of Pittsburgh—Of the Commonwealth System of …, priority 2011, dated 2017)
Where no end group is shown, it is not given here.

Molecular target: T1, Nox1 oxidase (COS-Nox1 lysate: hNox1, p22phox, NOXO1, NOXA1) (Homo sapiens, UniProt Q9Y5S8)
T1 construct: expressed in transfected cells; host or cells: COS-22 cells (COS 7 with p22phox), transiently cotransfected; cell lysate used
T1 sequence (Q9Y5S8 1-564): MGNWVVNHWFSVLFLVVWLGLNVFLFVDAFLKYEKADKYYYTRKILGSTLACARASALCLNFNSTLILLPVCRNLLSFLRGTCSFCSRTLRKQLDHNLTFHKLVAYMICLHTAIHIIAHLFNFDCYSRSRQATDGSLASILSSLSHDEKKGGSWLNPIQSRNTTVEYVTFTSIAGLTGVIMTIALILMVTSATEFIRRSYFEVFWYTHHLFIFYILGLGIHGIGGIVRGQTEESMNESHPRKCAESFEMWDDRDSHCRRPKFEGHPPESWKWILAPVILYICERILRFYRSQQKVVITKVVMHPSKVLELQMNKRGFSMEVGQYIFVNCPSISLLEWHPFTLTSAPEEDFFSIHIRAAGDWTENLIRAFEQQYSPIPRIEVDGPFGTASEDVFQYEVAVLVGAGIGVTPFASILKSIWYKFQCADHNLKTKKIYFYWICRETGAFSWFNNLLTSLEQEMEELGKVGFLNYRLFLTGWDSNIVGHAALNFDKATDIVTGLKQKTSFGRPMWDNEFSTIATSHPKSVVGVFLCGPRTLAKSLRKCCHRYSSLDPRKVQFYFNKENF
T1 sequence (P13498 2-195 partner limits assumed): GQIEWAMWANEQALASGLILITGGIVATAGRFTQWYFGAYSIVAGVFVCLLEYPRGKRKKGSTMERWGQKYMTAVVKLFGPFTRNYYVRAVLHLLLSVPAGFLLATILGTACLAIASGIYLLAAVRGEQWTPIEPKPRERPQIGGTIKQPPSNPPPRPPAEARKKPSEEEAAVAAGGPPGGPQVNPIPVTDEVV
Experiment: Cell-free SOD-inhibitable cytochrome c reduction assay, O2- production in COS-Nox1 lysates
Type: biochemical
Procedure: To test this hypothesis, the inhibitory activity of Nox2ds was assessed in cell-free assays using reconstituted systems expressing either Nox1, 2 or 4 oxidase. Nox 2 oxidase was recapitulated by stably transfecting COS 7 cells with Nox2, p22phox, p47phox, and p67phox (aka COS-Nox2). Nox1 oxidase was obtained by transfecting COS 7 cells with Nox1, p22phox, NOXO1 and NOXA1 (COS-Nox1), and Nox 4 oxidase was regenerated by transfection of COS 7 cells with Nox4 and p22phox. […] Our new data support selectivity of Nox2ds peptide in differentiating the contribution of Nox2 vs. Nox1 and Nox4 NADPH oxidase and its potential clinical use in ameliorating cardiopulmonary diseases.
Cell transfection was carried out using Lipofectamine LTX and Plus reagent (Invitrogen), according to the manufacturer's instructions. COS-22 cells were transiently cotransfected with pcDNA 3.1-hNox1, pCMVsport 6-hNOXA1, and pcDNA3.1-hNoxO1 (COS-Nox1/NOXO1/NOXA1 cells). Cells were used 24 h after transfection. […]
Superoxide (O2^−) production was measured in COS-Nox1 and COS-Nox2 lysates by determining the rate of O2^− dismutase (SOD) inhibitable cytochrome c reduction and by electron paramagnetic resonance (EPR). […]
O2^− production was initiated by the addition of NADPH and measured by the SOD-inhibitable cytochrome c reduction for 10 min.

CSTRVRRQL-NH2 [Nox2ds, CSTRVRRQL]
inhibition of Nox1-derived O2- production (in words): did not inhibit
rate of Nox1-derived O2- production, cytochrome c reduction (10 μM peptide, 0 μM control 0.97±0.14): 0.765±0.19 nmol O2^−/min/10^7 cell equivalents
